Experimental data from the supplement of paper PMC10307832.

Columns and labels:
Experiment in all cases: relative viability (nuclei count vs DMSO), 5 days (fraction); higher = more cells survive
CAL-12T = tested on: CAL-12T
How it was run: (§1)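 Relative viability is defined as nuclei in treated wells over nuclei in vehicle wells. Duplicate plates were run and medians reported. Lung cancer cell lines in 1536-well plates were dosed by pin tool one day after seeding, with one drug or with a fixed anchor-drug dose plus five library-drug doses (not always all listed) in √10 steps, and nuclei were counted after 5 days.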

EKVX = tested on: EKVX
How it was run: as §1

H3255 = tested on: H3255
How it was run: as §1

HCC-15 = tested on: HCC-15
How it was run: as §1

HCC-827 = tested on: HCC-827
How it was run: as §1

LK-2 = tested on: LK-2
How it was run: as §1

NCI-H1355 = tested on: NCI-H1355
How it was run: as §1

NCI-H1650 = tested on: NCI-H1650
How it was run: as §1

NCI-H1734 = tested on: NCI-H1734
How it was run: as §1

NCI-H1755 = tested on: NCI-H1755
How it was run: as §1

NCI-H1975 = tested on: NCI-H1975
How it was run: as §1

NCI-H2228 = tested on: NCI-H2228
How it was run: as §1

NCI-H2342 = tested on: NCI-H2342
How it was run: as §1

NCI-H2405 = tested on: NCI-H2405
How it was run: as §1

NCI-H322M = tested on: NCI-H322M
How it was run: as §1

NCI-H520 = tested on: NCI-H520
How it was run: as §1

NCI-H661 = tested on: NCI-H661
How it was run: as §1

PC-14 = tested on: PC-14
How it was run: as §1

PC-3 [JPC-3] = tested on: PC-3 [JPC-3]
How it was run: as §1

RERF-LC-KJ = tested on: RERF-LC-KJ
How it was run: as §1

With CC(=O)O[C@@]12CO[C@@H]1C[C@H](O)[C@@]1(C)C(=O)[C@H](O)C3=C(C)[C@@H](OC(=O)[C@H](O)[C@@H](NC(=O)OC(C)(C)C)c4ccccc4)C[C@@](O)([C@@H](OC(=O)c4ccccc4)[C@H]21)C3(C)C [Docetaxel] + CC(=O)c1c(C)c2cnc(Nc3ccc(N4CCNCC4)cn3)nc2n(C2CCCC2)c1=O [Palbociclib] (partner 0.5 µM) as the molecule, how does the relative viability (CAL-12T; first compound 0.0002 µM) read?
The relative viability was 0.251.

What about the relative viability (CAL-12T; first compound 0.000632 µM) of the same molecule?
The relative viability was 0.282.

What about the relative viability (CAL-12T; first compound 0.002 µM) of the same molecule?
The relative viability was 0.192.

And the relative viability (CAL-12T; first compound 0.006325 µM)?
The relative viability was 0.198.

What about the relative viability (CAL-12T; first compound 0.02 µM) of the same molecule?
Its relative viability is 0.105.

What about the relative viability (EKVX; first compound 0.0002 µM) of the same molecule?
The relative viability was 0.337.

And the relative viability (EKVX; first compound 0.000632 µM)?
Its relative viability is 0.36.

And the relative viability (EKVX; first compound 0.002 µM)?
Its relative viability is 0.245.

What about the relative viability (EKVX; first compound 0.006325 µM) of the same molecule?
The relative viability was 0.242.

What about the relative viability (EKVX; first compound 0.02 µM) of the same molecule?
The relative viability was 0.149.

And the relative viability (H3255; first compound 0.0002 µM)?
The relative viability was 0.323.

And the relative viability (H3255; first compound 0.000632 µM)?
The relative viability was 0.304.

What about the relative viability (H3255; first compound 0.002 µM) of the same molecule?
The relative viability was 0.296.

And the relative viability (H3255; first compound 0.006325 µM)?
Its relative viability is 0.308.

And the relative viability (H3255; first compound 0.02 µM)?
Its relative viability is 0.282.

And the relative viability (HCC-15; first compound 0.0002 µM)?
The relative viability was 0.643.

And the relative viability (HCC-15; first compound 0.000632 µM)?
The relative viability was 0.383.

And the relative viability (HCC-15; first compound 0.002 µM)?
Its relative viability is 0.228.

And the relative viability (HCC-15; first compound 0.006325 µM)?
The relative viability was 0.247.

And the relative viability (HCC-827; first compound 0.0002 µM)?
Its relative viability is 0.508.

What about the relative viability (HCC-827; first compound 0.000632 µM) of the same molecule?
The relative viability was 0.446.

What about the relative viability (HCC-827; first compound 0.002 µM) of the same molecule?
Its relative viability is 0.375.

What about the relative viability (HCC-827; first compound 0.006325 µM) of the same molecule?
Its relative viability is 0.213.

And the relative viability (HCC-827; first compound 0.02 µM)?
Its relative viability is 0.197.

What about the relative viability (LK-2; first compound 0.0002 µM) of the same molecule?
Its relative viability is 0.507.

And the relative viability (LK-2; first compound 0.000632 µM)?
The relative viability was 0.411.

What about the relative viability (LK-2; first compound 0.002 µM) of the same molecule?
The relative viability was 0.18.

And the relative viability (LK-2; first compound 0.006325 µM)?
The relative viability was 0.108.

What about the relative viability (LK-2; first compound 0.02 µM) of the same molecule?
Its relative viability is 0.0873.

What about the relative viability (NCI-H1355; first compound 0.0002 µM) of the same molecule?
The relative viability was 0.374.

What about the relative viability (NCI-H1355; first compound 0.000632 µM) of the same molecule?
The relative viability was 0.402.

What about the relative viability (NCI-H1355; first compound 0.002 µM) of the same molecule?
Its relative viability is 0.29.

What about the relative viability (NCI-H1355; first compound 0.02 µM) of the same molecule?
Its relative viability is 0.176.

And the relative viability (NCI-H1650; first compound 0.0002 µM)?
Its relative viability is 0.257.

What about the relative viability (NCI-H1650; first compound 0.000632 µM) of the same molecule?
The relative viability was 0.263.

What about the relative viability (NCI-H1650; first compound 0.002 µM) of the same molecule?
Its relative viability is 0.207.

What about the relative viability (NCI-H1650; first compound 0.006325 µM) of the same molecule?
The relative viability was 0.216.

What about the relative viability (NCI-H1650; first compound 0.02 µM) of the same molecule?
Its relative viability is 0.138.

What about the relative viability (NCI-H1734; first compound 0.0002 µM) of the same molecule?
The relative viability was 0.321.

What about the relative viability (NCI-H1734; first compound 0.000632 µM) of the same molecule?
Its relative viability is 0.336.

And the relative viability (NCI-H1734; first compound 0.002 µM)?
The relative viability was 0.281.

What about the relative viability (NCI-H1734; first compound 0.006325 µM) of the same molecule?
Its relative viability is 0.314.

What about the relative viability (NCI-H1734; first compound 0.02 µM) of the same molecule?
The relative viability was 0.23.

What about the relative viability (NCI-H1755; first compound 0.0002 µM) of the same molecule?
The relative viability was 0.466.

What about the relative viability (NCI-H1755; first compound 0.000632 µM) of the same molecule?
The relative viability was 0.489.

What about the relative viability (NCI-H1755; first compound 0.002 µM) of the same molecule?
The relative viability was 0.5.

What about the relative viability (NCI-H1755; first compound 0.006325 µM) of the same molecule?
The relative viability was 0.41.

And the relative viability (NCI-H1755; first compound 0.02 µM)?
The relative viability was 0.406.

What about the relative viability (NCI-H1975; first compound 0.0002 µM) of the same molecule?
The relative viability was 0.568.

What about the relative viability (NCI-H1975; first compound 0.000632 µM) of the same molecule?
Its relative viability is 0.354.

And the relative viability (NCI-H1975; first compound 0.002 µM)?
The relative viability was 0.224.

And the relative viability (NCI-H1975; first compound 0.006325 µM)?
The relative viability was 0.215.

And the relative viability (NCI-H1975; first compound 0.02 µM)?
The relative viability was 0.107.

What about the relative viability (NCI-H2228; first compound 0.0002 µM) of the same molecule?
Its relative viability is 0.52.

And the relative viability (NCI-H2228; first compound 0.000632 µM)?
Its relative viability is 0.251.

And the relative viability (NCI-H2228; first compound 0.002 µM)?
The relative viability was 0.195.

What about the relative viability (NCI-H2228; first compound 0.006325 µM) of the same molecule?
Its relative viability is 0.137.

And the relative viability (NCI-H2228; first compound 0.02 µM)?
Its relative viability is 0.129.

What about the relative viability (NCI-H2342; first compound 0.0002 µM) of the same molecule?
The relative viability was 0.683.

And the relative viability (NCI-H2342; first compound 0.000632 µM)?
The relative viability was 0.558.

And the relative viability (NCI-H2342; first compound 0.002 µM)?
The relative viability was 0.486.

And the relative viability (NCI-H2342; first compound 0.006325 µM)?
Its relative viability is 0.388.

What about the relative viability (NCI-H2342; first compound 0.02 µM) of the same molecule?
Its relative viability is 0.394.

And the relative viability (NCI-H2405; first compound 0.0002 µM)?
Its relative viability is 0.525.

And the relative viability (NCI-H2405; first compound 0.000632 µM)?
Its relative viability is 0.513.

And the relative viability (NCI-H2405; first compound 0.002 µM)?
Its relative viability is 0.456.

What about the relative viability (NCI-H2405; first compound 0.006325 µM) of the same molecule?
Its relative viability is 0.401.

What about the relative viability (NCI-H2405; first compound 0.02 µM) of the same molecule?
The relative viability was 0.29.

And the relative viability (NCI-H322M; first compound 0.0002 µM)?
The relative viability was 0.469.

What about the relative viability (NCI-H322M; first compound 0.000632 µM) of the same molecule?
The relative viability was 0.448.

What about the relative viability (NCI-H322M; first compound 0.002 µM) of the same molecule?
The relative viability was 0.471.

And the relative viability (NCI-H322M; first compound 0.006325 µM)?
Its relative viability is 0.468.

And the relative viability (NCI-H322M; first compound 0.02 µM)?
The relative viability was 0.438.

What about the relative viability (NCI-H520; first compound 0.0002 µM) of the same molecule?
The relative viability was 0.192.

And the relative viability (NCI-H520; first compound 0.000632 µM)?
Its relative viability is 0.253.

What about the relative viability (NCI-H520; first compound 0.002 µM) of the same molecule?
The relative viability was 0.209.

And the relative viability (NCI-H520; first compound 0.006325 µM)?
The relative viability was 0.189.

And the relative viability (NCI-H520; first compound 0.02 µM)?
Its relative viability is 0.122.

What about the relative viability (NCI-H661; first compound 0.0002 µM) of the same molecule?
The relative viability was 0.42.

What about the relative viability (NCI-H661; first compound 0.000632 µM) of the same molecule?
The relative viability was 0.448.

And the relative viability (NCI-H661; first compound 0.002 µM)?
The relative viability was 0.472.

What about the relative viability (NCI-H661; first compound 0.006325 µM) of the same molecule?
Its relative viability is 0.377.

What about the relative viability (NCI-H661; first compound 0.02 µM) of the same molecule?
The relative viability was 0.359.

What about the relative viability (PC-14; first compound 0.0002 µM) of the same molecule?
Its relative viability is 0.466.

And the relative viability (PC-14; first compound 0.000632 µM)?
Its relative viability is 0.501.

What about the relative viability (PC-14; first compound 0.002 µM) of the same molecule?
The relative viability was 0.0828.

And the relative viability (PC-14; first compound 0.006325 µM)?
Its relative viability is 0.0351.

And the relative viability (PC-14; first compound 0.02 µM)?
The relative viability was 0.0299.

And the relative viability (PC-3 [JPC-3]; first compound 0.0002 µM)?
Its relative viability is 0.55.

What about the relative viability (PC-3 [JPC-3]; first compound 0.000632 µM) of the same molecule?
The relative viability was 0.559.

What about the relative viability (PC-3 [JPC-3]; first compound 0.002 µM) of the same molecule?
Its relative viability is 0.573.

And the relative viability (PC-3 [JPC-3]; first compound 0.006325 µM)?
Its relative viability is 0.469.

And the relative viability (PC-3 [JPC-3]; first compound 0.02 µM)?
The relative viability was 0.422.

And the relative viability (RERF-LC-KJ; first compound 0.0002 µM)?
Its relative viability is 1.02.

And the relative viability (RERF-LC-KJ; first compound 0.000632 µM)?
Its relative viability is 1.37.

What about the relative viability (RERF-LC-KJ; first compound 0.002 µM) of the same molecule?
Its relative viability is 0.381.

And the relative viability (RERF-LC-KJ; first compound 0.006325 µM)?
Its relative viability is 0.249.

And the relative viability (RERF-LC-KJ; first compound 0.02 µM)?
The relative viability was 0.165.
